Source: patent US8835455B2, “Crystalline forms of trans-7-oxo-6-(sulphooxy)-1,6-diazabicyclo[3,2,1]octane-2-carboxamide sodium salt” (Forest Laboratories Holdings Limited, priority 2009, dated 2014)
Where two headings read alike, the source gives them in different places. Each block holds one compound with its values, some of them ahead of it.

Legend:
[1] = Decarbonyl degradation product of NXL-104 (reverse phase gradient HPLC, UV 195 nm); format: physicochemical; settings: vial at 25° C./60% RH
Experimental: The decarbonyl degradation product of trans-7-oxo-6-(sulphooxy)-1,6-diazabicyclo[3,2,1]octane-2-carboxamide sodium salt was determined by a reverse phase gradient HPLC method with UV detection at 195 nm.
(§1) The following parameters were used for analysis:
(§2) Column: Inertsil ODS-3, 250 mm×4.6 mm, 5 μm
Mobile Phase A: Deionized Water
Mobile Phase B: 50 mM KH2PO4 solution: Acetonitrile, [50:50 (v:v)]
(§3) Column Temperature: 25° C.
(§4) Detector/Setting: UV/195 nm
Run Time (Approximate): 35 minutes
Injector Washing Solution: Acetonitrile:Water, [50:50 (v:v)] (Recommended)
Approximate relative retention time (RRT) for decarbonyl was 0.17.

[2] = Assay for NXL-104 and related substances (reverse phase gradient HPLC, UV 195 nm) on stored samples; format: physicochemical; settings: vial at 25° C./60% RH
Experimental: Assay for NXL-104 and Related Substances
NXL-104 and related substances in compositions comprising trans-7-oxo-6-(sulphooxy)-1,6-diazabicyclo[3,2,1]octane-2-carboxamide sodium salt were determined by a reverse phase gradient HPLC method with UV detection at 195 nm.
as §1, §2
Mobile Phase A: 100 mM KH2PO4 Solution
Mobile Phase B: Acetonitrile: Water, [50:50 (v:v)]
as §3
Autosampler Temperature: 5° C.
as §4
Run Time: about 25 minutes
Injector Washing Solution: Acetonitrile:Water, [10:90 (v:v)]
Approximate relative retention times (RRT) values for trans-7-oxo-6-(sulphooxy)-1,6-diazabicyclo[3,2,1]octane-2-carboxamide sodium salt and disulfate were 1.00 and 0.37.
The stability of amorphous trans-7-oxo-6-(sulphooxy)-1,6-diazabicyclo[3,2,1]octane-2-carboxamide sodium salt stored in a vial stored at 25° C. with a relative humidity of 60% (25° C./60% RH) was evaluated using the NXL-104 assay described above.
NXL-104 and related substances were measured according to the assay described in Example 6.

[3] = pH of stability samples; format: physicochemical; settings: vial at 25° C./60% RH
[4] = Phase I study Part A, single IV dose, plasma pharmacokinetics; format: in vivo, healthy male and female subjects; settings: for AUC(0-inf) / Cmax / T1/2 / half-life: Geo mean; for Tmax: Median; for pharmacokinetic interaction between ceftaroline fosamil and NXL-104: Phase I Part A, single 600 mg IV doses alone or concomitant
Experimental: (§5) A single center, two-part randomized Phase I Study was conducted to evaluate the safety, tolerability, and pharmacokinetics of single and multiple intravenous doses of ceftaroline fosamil and NXL-104 in healthy male and female subjects, aged 18 through 45 years.
(§6) Part A was an open-label, 3-way crossover, single-dose study to evaluate the safety, tolerability, and pharmacokinetics of ceftaroline and NXL-104 following co-administration of a single intravenous (IV) dose of ceftaroline fosamil and NXL-104 in 12 healthy subjects.
Treatment A: single dose of 600 mg ceftaroline fosamil via IV infusion over one hour.
Treatment B: single dose of 600 mg NXL-104 via IV infusion over one hour.
Treatment C: single dose of 600 mg ceftaroline fosamil and 600 mg NXL-104 via concomitant IV infusion over one hour.
Blood samples were collected at the following times to determine ceftaroline, ceftaroline fosamil, ceftaroline M-1 (metabolite of ceftaroline fosamil), and NXL-104 free-acid plasma concentrations.
Days 1 (Period I), 6 (Period II), and 11 (Period III): in each study period immediately before (within 15 minutes) the start of infusion and after the start of study drug infusion at 20, 40, 60 (immediately before the end of study-drug infusion), 65, and 75 minutes and at 1.5, 2, 3, 4, 6, 8, 12, 18, 24, 36, and 48 hours
The principal parameters describing the pharmacokinetics of ceftaroline, ceftaroline fosamil, ceftaroline M-1 (metabolite of ceftaroline fosamil), and NXL-104 were derived from plasma concentrations using noncompartmental analysis with the software program WinNonlin. Plasma concentrations below the limit of quantification were treated as zero for all PK calculations. The actual sampling times were used in the calculations of PK parameters.
The following PK parameters were determined for ceftaroline, ceftaroline ceftaroline M-1, and NXL-104 free acid: AUC0-t and area under the plasma concentration versus time curve from time zero to infinity (AUC0-∞), Cmax, time of maximum plasma concentration (Tmax), CL, volume of distribution (VA and steady-state volume of distribution (Vss). Minimum plasma concentration (Cmin), accumulation ratio (Rac), and area under the plasma concentration versus time curve during the dosing interval, τ, (AUC0-τ) will be determined following multiple-dose administration.
Because all doses of ceftaroline are expressed in terms of anhydrous, acetate-free ceftaroline fosamil (ceftaroline prodrug, molecular weight=684.68), the following corrections were made to the dose when calculating PK parameters that include doses for ceftaroline (molecular weight=604.70) and ceftaroline M-1 (molecular weight=622.72): Ceftaroline dose=0.883×ceftaroline fosamil dose Ceftaroline M-1 dose=0.909×ceftaroline fosamil dose
The Cmax of ceftaroline, ceftaroline fosamil, ceftaroline M-1, and NXL-104 free acid was determined observationally as the peak concentration for each subject. Tmax was determined as the time corresponding to Cmax.
Area under the plasma concentration versus time curve up to the time corresponding to the last measurable concentration (AUC0-t) was calculated by numeric integration using the linear trapezoidal rule as follows:
Estimates of T1/2 were calculated using the following equation: T1/2=0.693/λz
The AUC0-∞ was calculated according to the following equation: AUC0-∞=AUC0-t+Clast/λz
CL was calculated with the following equation: CL=Doseiv/AUC0-∞
Vz based on the terminal phase was determined as: Vz=Doseiv/λz×AUC0-∞
In part A, PK parameters were compared by analysis of variance using SAS version 9.1.3 on a UNIX operating system. A general linear model with sequence, subject within sequence, treatment, and period as factors was used as the basis for the analysis. […]

[5] = Phase I study, safety and tolerability; format: in vivo, healthy male and female subjects; settings: healthy subjects, IV
Experimental: as §5, §6
The following procedures were performed and recorded at screening: • Collect blood samples for serology testing, hematology evaluation (including CBC, prothrombin time and international normalized ratio [PT/INR], partial thromboplastin time [PTT], free hemoglobin, haptoglobin, and reticulocyte count), and comprehensive metabolic panel • Collect urine for UA (including urine microscopy) and for drugs-of-abuse screen • Perform β-HCG serum pregnancy test (female subjects only) • Calculate CrCl and BMI • Assess vital signs • Perform 12-lead ECG • Perform complete physical examination • Assess prior medications • Record medical and surgical history • Record any spontaneously reported AE or SAE between signing of informed consent and Day —1 for subjects who comply with all screening processes […]

[6] = Behaviour of crystalline forms in humid atmosphere; format: physicochemical
Source text: The invention also relates to processes for making a dihydrate form of the sodium salt of (1R,2S,5R)-7-oxo-6-sulphooxy-1,6-diazabicyclo[3.2.1]octane-2-carboxamide called Form III. In exemplary embodiments, crystals of Form II are suspended in water, and the suspension is then left to evaporate slowly in a humid atmosphere. Crystals can also been obtained by trituration of crystals of Form II in water or in an alkanol-water mixture, or by conversion, in a humid atmosphere, of the anhydrous Form I and Form IV to the monohydrated Form II and then to the dihydrated Form III.

[7] = Treatment 600 mg Ceftaroline fosamil
[8] = Treatment 600 mg NXL-104 + Ceftaroline fosamil 600 mg
[9] = both sexes, human, plasma, iv, 600 mg, Treatment 600 mg Ceftaroline fosamil
[10] = both sexes, human, plasma, iv, 600 mg, Treatment 600 mg Ceftaroline fosamil, read-out: AUC0-inf
[11] = both sexes, human, plasma, iv, 600 mg, Treatment 600 mg Ceftaroline fosamil, read-out: Cmax
[12] = both sexes, human, plasma, iv, 600 mg, Treatment 600 mg NXL-104 + Ceftaroline fosamil 600 mg
[13] = both sexes, human, plasma, iv, 600 mg, Treatment 600 mg NXL-104 + Ceftaroline fosamil 600 mg, read-out: AUC0-inf
[14] = both sexes, human, plasma, iv, 600 mg, Treatment 600 mg NXL-104 + Ceftaroline fosamil 600 mg, read-out: Cmax
[15] = both sexes, human, plasma, iv, Treatment 600 mg Ceftaroline fosamil, read-out: Tmax

SMILES: CCO/N=C(\C(=O)N[C@H](C(=O)[O-])[C@@H]1NC(C(=O)[O-])=C(Sc2nc(-c3cc[n+](C)cc3)cs2)CS1)c1nsc(N)n1.[H+] [Ceftaroline M-1]
AUC(0-inf) [4, 7]: 16420 ng·h/mL
Cmax [4, 7]: 3290 ng/mL
T1/2 [4, 7]: 3.75 h
Tmax [4, 7]: 1.08 h
AUC(0-inf) [4, 8]: 15780 ng·h/mL
Cmax [4, 8]: 3210 ng/mL
T1/2 [4, 8]: 3.78 h
Tmax [4, 8]: 1.04 h

SMILES: CCO/N=C(\C(=O)N[C@@H]1C(=O)N2C(C(=O)[O-])=C(Sc3nc(-c4cc[n+](C)cc4)cs3)CS[C@H]12)c1nsc(NP(=O)(O)O)n1 [ceftaroline fosamil, (6R,7R)-7-{(2Z)-2-(ethoxyimino)-2-[5-(phosphonoamino)-1,2,4-thiadiazol-3-yl]acetamido}-3-{[4-(1-methylpyridin-1-ium-4-yl)-1,3-thiazol-2-yl]sulfanyl}-8-oxo-5-thia-1-azabicyclo[4.2.0]oct-2-ene-2-carboxylate]
safety [5]: no safety concerns
pharmacokinetic interaction between ceftaroline fosamil and NXL-104 [4]: no pharmacokinetic interactions
half-life [4, 9]: 0.084 h
AUC(0-inf) [4, 10]: 2170 ng·h/mL
Cmax [4, 11]: 2110 ng/mL
half-life [4, 12]: 0.055 h
AUC(0-inf) [4, 13]: 2160 ng·h/mL
Cmax [4, 14]: 2370 ng/mL
Tmax [4, 15]: 0.67 h

SMILES: CCO/N=C(\C(=O)N[C@@H]1C(=O)N2C(C(=O)[O-])=C(Sc3nc(-c4cc[n+](C)cc4)cs3)CS[C@H]12)c1nsc(N)n1 [Ceftaroline]
half-life [4, 9]: 2.51 h
AUC(0-inf) [4, 10]: 61000 ng·h/mL
Cmax [4, 11]: 24800 ng/mL
half-life [4, 12]: 2.47 h
AUC(0-inf) [4, 13]: 60000 ng·h/mL
Cmax [4, 14]: 26700 ng/mL
Tmax [4, 15]: 1 h

SMILES: NC(=O)[C@@H]1CC[C@@H]2CN1C(=O)N2OS(=O)(=O)[O-].[Na+] [Form III, trans-7-oxo-6-(sulphooxy)-1,6-diazabicyclo[3,2,1]octane-2-carboxamide sodium salt]
stability at higher humidities [6]: particularly stable

The next lines start with results.

Decarbonyl ([1]; 1 month): 0.46%
Decarbonyl ([1]; 3 months): 0.48%
Decarbonyl ([1]; 6 months): 0.33%
Decarbonyl ([1]; Initial): 0.63%
Disulfate ([2]; 1 month): 0.19%
NXL-104 % ([2]; 1 month): 111.3%
Total Impurities, NXL-104 related ([2]; 1 month): 0.89%
Disulfate ([2]; 3 months): 0.17%
NXL-104 % ([2]; 3 months): 108.0%
Total Impurities, NXL-104 related ([2]; 3 months): 0.92%
Disulfate ([2]; 6 months): 0.17%
NXL-104 % ([2]; 6 months): 106.1%
Total Impurities, NXL-104 related ([2]; 6 months): 0.87%
Disulfate ([2]; Initial): 0.19%
NXL-104 % ([2]; Initial): 106.4%
Total Impurities, NXL-104 related ([2]; Initial): 0.90%
pH ([3]; 1 month): 7.3
pH ([3]; 3 months): 7.2
pH ([3]; 6 months): 7.3
pH ([3]; Initial): 7.0
SMILES: NC(=O)[C@@H]1CC[C@@H]2CN1C(=O)N2OS(=O)(=O)[O-].[Na+] [amorphous NXL-104, trans-7-oxo-6-(sulphooxy)-1,6-diazabicyclo[3,2,1]octane-2-carboxamide sodium salt]

pharmacokinetic interaction between ceftaroline fosamil and NXL-104 [4]: no pharmacokinetic interactions
half-life [4, 12]: 1.63 h
AUC(0-inf) [4, 13]: 51200 ng·h/mL
Cmax [4, 14]: 29100 ng/mL
half-life ([4]; both sexes, human, plasma, iv, 600 mg, Treatment 600 mg NXL-104): 1.64 h
AUC(0-inf) ([4]; both sexes, human, plasma, iv, 600 mg, Treatment 600 mg NXL-104, read-out: AUC0-inf): 51900 ng·h/mL
Cmax ([4]; both sexes, human, plasma, iv, 600 mg, Treatment 600 mg NXL-104, read-out: Cmax): 29500 ng/mL
Tmax ([4]; both sexes, human, plasma, iv, Treatment 600 mg NXL-104, read-out: Tmax): 1 h
SMILES: NC(=O)[C@@H]1CC[C@@H]2CN1C(=O)N2OS(=O)(=O)[O-].[Na+] [NXL-104, trans-7-oxo-6-(sulphooxy)-1,6-diazabicyclo[3,2,1]octane-2-carboxamide sodium salt]
safety [5]: no safety concerns
